Assay results published in ChEMBL document CHEMBL1137624, “Synthesis and characterization of pyrrolidine derivatives as potent agonists of the human melanocortin-4 receptor” (Bioorg Med Chem Lett, 2007).
Activity calls are given as the source filed them. The rule behind the calls is not given here.

Key:
Melanocortin receptor 4 [1] = biological target: T1, Melanocortin receptor 4 (Homo sapiens, UniProt P32245); assay: Displacement of [125I]NDP-MSH from human MC4 receptor expressed in HEK293 cells; type: cell-based
Melanocortin receptor 4 [2] = biological target: T1, Melanocortin receptor 4; assay: Agonist activity at human MC4 receptor expressed in CHO cells assessed as cAMP accumulation by ELISA; type: functional, cell-based
Melanocortin receptor 4 [3] = biological target: T1, Melanocortin receptor 4; assay: Intrinsic activity at human MC4 receptor expressed in CHO cells assessed as cAMP accumulation relative to alpha-MSH; type: functional, cell-based
[4] = biological target: Melanocyte-stimulating hormone receptor (Homo sapiens, UniProt Q01726); assay: Binding affinity at human MC1 receptor
Melanocortin receptor 3 = Melanocortin receptor 3 (Homo sapiens, UniProt P41968); assay: Binding affinity at human MC3 receptor
Melanocortin receptor 5 = Melanocortin receptor 5 (Homo sapiens, UniProt P33032); assay: Binding affinity at human MC5 receptor
[5] = Plasma clearance in rat at 2.5 mg/kg, iv; type: ADME, organism-based; set-up: dose 2.5 mg/kg, route intravenous
[6] = Volume of distribution in rat at 2.5 mg/kg, iv; type: ADME, organism-based; set-up: dose 2.5 mg/kg, route intravenous; conditions: in vivo
[7] = Half life in rat at 2.5 mg/kg, iv; type: ADME, organism-based; set-up: dose 2.5 mg/kg, route intravenous; conditions: in vivo
[8] = Concentration in rat brain at 2.5 mg/kg, iv after 1 hr; type: ADME, organism-based; set-up: dose 2.5 mg/kg, route intravenous; conditions: read-out: Drug uptake
[9] = Concentration in rat brain at 2.5 mg/kg, iv after 4 hrs; type: ADME, organism-based; set-up: dose 2.5 mg/kg, route intravenous; conditions: read-out: Drug uptake
[10] = Ratio of drug level in brain to plasma in rat at 2.5 mg/kg, iv; type: ADME, organism-based; set-up: dose 2.5 mg/kg, route intravenous; conditions: read-out: BPR
[11] = Distribution coefficient, log D by shake flake method; type: physicochemical; conditions: octanol/water
[12] = Apparent permeability across apical to basolateral side of Caco-2 cells; type: ADME, cell-based; conditions: human
Caco-2 = assay: Ratio of permeability from […] side of Caco-2 cells; type: ADME, cell-based; conditions: human
[13] = Cmax in rat at 10 mg/kg, po after 3 hrs; type: ADME, organism-based; set-up: dose 10 mg/kg, route oral; conditions: in vivo
[14] = AUC in rat at 10 mg/kg, po; type: ADME, organism-based; set-up: dose 10 mg/kg, route oral; conditions: plasma
[15] = Oral bioavailability in rat at 10 mg/kg, po; type: ADME, organism-based; conditions: in vivo
Rattus norvegicus [16] = assay: Decrease in cumulative food intake in high-fat diet fed CD rat at 30 mg/kg, ip after 1 to 6 hrs; type: functional, organism-based; set-up: dose 30 mg/kg
Rattus norvegicus [17] = organism: Rattus norvegicus; assay: Decrease in cumulative food intake in high-fat diet fed CD rat after 24 hrs; type: functional, organism-based

T1 sequence (P32245 whole entry): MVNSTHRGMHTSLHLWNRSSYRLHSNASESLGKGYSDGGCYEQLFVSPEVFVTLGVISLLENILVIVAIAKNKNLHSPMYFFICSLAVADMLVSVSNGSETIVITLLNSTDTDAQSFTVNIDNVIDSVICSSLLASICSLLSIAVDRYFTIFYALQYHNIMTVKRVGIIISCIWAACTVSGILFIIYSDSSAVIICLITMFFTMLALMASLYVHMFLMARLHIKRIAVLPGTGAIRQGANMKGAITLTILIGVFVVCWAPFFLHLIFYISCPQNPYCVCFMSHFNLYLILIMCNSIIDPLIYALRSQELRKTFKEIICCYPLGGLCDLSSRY
Chain of Melanocyte-stimulating hormone receptor (Q01726 whole entry): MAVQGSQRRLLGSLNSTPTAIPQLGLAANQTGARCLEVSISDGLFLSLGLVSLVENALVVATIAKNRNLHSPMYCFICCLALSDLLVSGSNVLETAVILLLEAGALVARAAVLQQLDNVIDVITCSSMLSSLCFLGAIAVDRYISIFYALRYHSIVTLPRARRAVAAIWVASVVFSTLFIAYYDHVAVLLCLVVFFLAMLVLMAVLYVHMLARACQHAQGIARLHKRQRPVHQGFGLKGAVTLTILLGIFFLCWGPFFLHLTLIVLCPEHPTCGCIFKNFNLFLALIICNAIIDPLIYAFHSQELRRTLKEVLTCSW
Chain of Melanocortin receptor 5 (P33032 whole entry): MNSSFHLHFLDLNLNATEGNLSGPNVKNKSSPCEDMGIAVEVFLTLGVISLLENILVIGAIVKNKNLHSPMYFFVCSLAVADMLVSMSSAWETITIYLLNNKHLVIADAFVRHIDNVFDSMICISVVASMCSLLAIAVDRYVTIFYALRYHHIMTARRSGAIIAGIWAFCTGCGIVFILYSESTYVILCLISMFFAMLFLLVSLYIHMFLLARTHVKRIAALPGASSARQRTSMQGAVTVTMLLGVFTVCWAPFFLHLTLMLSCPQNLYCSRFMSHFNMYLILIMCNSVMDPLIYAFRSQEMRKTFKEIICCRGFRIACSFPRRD
Chain of Melanocortin receptor 3 (P41968 whole entry): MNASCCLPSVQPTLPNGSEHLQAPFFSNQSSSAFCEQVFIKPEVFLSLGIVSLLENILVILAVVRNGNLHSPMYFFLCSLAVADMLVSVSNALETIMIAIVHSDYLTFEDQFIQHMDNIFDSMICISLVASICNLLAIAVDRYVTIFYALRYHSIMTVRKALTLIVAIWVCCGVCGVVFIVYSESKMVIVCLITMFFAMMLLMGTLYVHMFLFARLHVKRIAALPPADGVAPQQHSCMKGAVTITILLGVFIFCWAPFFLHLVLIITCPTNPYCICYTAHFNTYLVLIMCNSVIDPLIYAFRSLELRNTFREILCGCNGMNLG

Cc1ccc(N2CCN(C(=O)[C@@H]3CN(C4CCOCC4)C[C@H]3c3ccc(Cl)cc3)CC2)c([C@@H](N)C(C)C)c1
Ki (Melanocortin receptor 4 [1]): 11 nM
EC50 (Melanocortin receptor 4 [2]): 24 nM
Intrinsic activity (Melanocortin receptor 4 [3]): 105%
Ki [4]: 3350 nM
Ki (Melanocortin receptor 3): 1600 nM
Ki (Melanocortin receptor 5): 240 nM
clearance [5]: 118 mL/min/kg
Vd [6]: 270 L/kg
half-life [7]: 27 h
concentration at 1 h [8]: 5 ng/g
concentration at 4 h [9]: 32 ng/g
Kp [10]: 0.7
logD [11]: 1.8
Papp A→B [12]: 0.8 ×10⁻⁶ cm/s
Ratio (Caco-2): 25
Cmax [13]: 16 ng/mL
AUC [14]: 154 ng·h/mL
bioavailability [15]: 22%
Activity (Rattus norvegicus [16]): Active
Activity (Rattus norvegicus [17]): Dose-dependent effect
